# Source: patent US20230234948A1, “CYCLOPROPYL DIHYDROQUINOLINE SULFONAMIDE COMPOUNDS” (AMGEN INC., priority 2020, published 2023)
# Molecular target: T1, Human NaV1.7 (Homo sapiens, UniProt Q15858)
# T1 construct: expressed in transfected cells; host or cells: Spiking HEK cells (without Kir2.1 transfection)
# Test: Ionworks Barracuda (IWB) automated patch clamp assay
# Type: cell-based
# Conditions: human NaV1.7 in HEK cells, population patch-clamp, state- and use-dependent voltage protocol; read-out: hNaV1.7 IWB-U IC50
# Protocol: Ionworks Barracuda (IWB) Automated Patch Clamp Assay (Same Protocol for Both Human and Mouse)
# Human NaV1.7 currents were recorded in population patch-clamp mode with the IWB automated electrophysiology system (Molecular Devices, LLC, Sunnyvale, Calif.). Spiking HEK cells (without Kir2.1 transfection) were cultured and prepared for recordings as previously described for IonWorks Quattro testing^1. The external solution consisted of the following (in mM): NaCl 140, KCl 5, CaCl2 2, MgCl2 1, HEPES 10, and glucose 11, pH 7.4, with N-methyl-D-glucamine at 320 mOsmol. […] From a holding potential of −110 mV, currents were elicited by a train of 26 depolarizations of 150 ms duration to −20 mV at a frequency of 5 Hz. Cells were then clamped to −20 mV for a period of 4 minutes in the presence of a single concentration of test compound. Following this compound incubation period, cells were clamped to −110 mV for three seconds to recover unbound channels and put through the same 26 pulse voltage protocol as above. Peak inward current during the 26th pulse to −20 mV in the presence of compound was divided by the peak inward current evoked by the 26th pulse to −20 mV in the absence of compound to determine percent inhibition. Concentration-response curves of percent inhibition as a function of concentration were generated to calculate IC50 values as described in Kornecook, T. J.; Yin, R.; Altmann, S.; et al. Pharmacologic Characterization of AMG8379, a Potent and Selective Small Molecule Sulfonamide Antagonist of the Voltage-Gated Sodium Channel NaV1. 7.
# The potency of the compounds of the present invention were evaluated on human NaV1.7 channels using the above described IonWorks Barracuda automated electrophysiology platform that evaluates the ability of compounds to block sodium conductance through NaV1.7 channels. A voltage-protocol that prosecutes both state-dependent as well as use-dependent inhibition was used as these modes of action are thought to be more relevant for the native state of NaV1.7 channels in pain sensing neurons in vivo.
# T1 sequence (Q15858 whole entry): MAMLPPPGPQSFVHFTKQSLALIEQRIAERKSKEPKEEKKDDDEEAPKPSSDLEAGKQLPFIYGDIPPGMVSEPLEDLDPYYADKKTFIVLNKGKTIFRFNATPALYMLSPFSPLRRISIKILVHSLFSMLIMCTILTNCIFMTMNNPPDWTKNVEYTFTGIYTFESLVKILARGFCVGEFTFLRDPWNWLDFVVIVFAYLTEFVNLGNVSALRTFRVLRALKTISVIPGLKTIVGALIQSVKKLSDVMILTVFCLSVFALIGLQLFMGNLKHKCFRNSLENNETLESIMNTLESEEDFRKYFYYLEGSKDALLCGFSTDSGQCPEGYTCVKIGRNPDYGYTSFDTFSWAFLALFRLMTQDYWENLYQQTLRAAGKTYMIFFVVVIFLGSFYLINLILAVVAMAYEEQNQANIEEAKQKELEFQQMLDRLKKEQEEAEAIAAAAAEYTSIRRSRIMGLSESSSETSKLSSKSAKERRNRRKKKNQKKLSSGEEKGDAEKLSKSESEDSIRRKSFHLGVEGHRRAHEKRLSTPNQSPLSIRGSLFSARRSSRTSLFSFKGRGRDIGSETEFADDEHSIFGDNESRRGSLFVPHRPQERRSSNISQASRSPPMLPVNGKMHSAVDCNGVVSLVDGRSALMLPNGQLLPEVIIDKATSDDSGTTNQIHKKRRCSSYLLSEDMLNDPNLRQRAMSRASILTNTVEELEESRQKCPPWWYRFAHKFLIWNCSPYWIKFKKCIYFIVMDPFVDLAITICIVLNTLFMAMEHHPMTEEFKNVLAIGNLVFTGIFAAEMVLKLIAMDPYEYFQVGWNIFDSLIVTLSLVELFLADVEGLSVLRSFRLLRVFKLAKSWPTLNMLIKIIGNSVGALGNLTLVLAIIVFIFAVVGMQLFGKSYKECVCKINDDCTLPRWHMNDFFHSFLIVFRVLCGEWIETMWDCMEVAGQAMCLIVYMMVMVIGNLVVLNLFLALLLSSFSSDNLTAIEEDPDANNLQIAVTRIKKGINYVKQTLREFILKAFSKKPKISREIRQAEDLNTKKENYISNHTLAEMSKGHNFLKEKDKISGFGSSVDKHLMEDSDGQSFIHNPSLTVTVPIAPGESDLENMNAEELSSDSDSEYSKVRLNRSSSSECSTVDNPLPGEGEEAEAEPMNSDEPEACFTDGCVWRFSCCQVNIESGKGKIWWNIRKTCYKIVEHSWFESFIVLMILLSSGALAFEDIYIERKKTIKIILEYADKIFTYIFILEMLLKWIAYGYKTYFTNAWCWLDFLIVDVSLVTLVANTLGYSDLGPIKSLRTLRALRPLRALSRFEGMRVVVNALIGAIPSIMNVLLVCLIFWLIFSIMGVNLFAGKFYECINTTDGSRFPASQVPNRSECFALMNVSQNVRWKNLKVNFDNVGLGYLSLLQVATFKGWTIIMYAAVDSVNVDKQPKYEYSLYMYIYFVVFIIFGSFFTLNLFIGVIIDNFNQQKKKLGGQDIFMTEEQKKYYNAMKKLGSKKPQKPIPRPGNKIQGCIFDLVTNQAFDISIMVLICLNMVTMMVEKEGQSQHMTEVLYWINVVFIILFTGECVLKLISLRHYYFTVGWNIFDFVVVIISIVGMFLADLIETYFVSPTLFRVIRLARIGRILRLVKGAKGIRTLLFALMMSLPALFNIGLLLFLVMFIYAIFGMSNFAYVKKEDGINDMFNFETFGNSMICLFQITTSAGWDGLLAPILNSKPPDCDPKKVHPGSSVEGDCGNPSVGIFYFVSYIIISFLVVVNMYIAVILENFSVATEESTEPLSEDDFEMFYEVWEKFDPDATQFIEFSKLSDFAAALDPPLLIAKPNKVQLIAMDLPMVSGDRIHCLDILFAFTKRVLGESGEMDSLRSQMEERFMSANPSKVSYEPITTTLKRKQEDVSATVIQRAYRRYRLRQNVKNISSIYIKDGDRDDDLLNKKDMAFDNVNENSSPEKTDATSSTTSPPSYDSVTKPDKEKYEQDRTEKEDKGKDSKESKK
row,SMILES,IC50
1,"COc1cc([C@H]2C[C@@H]2C(F)(F)F)c(C#N)cc1-n1c(=O)ccc2cc(S(=O)(=O)Nc3ccon3)ccc21 (atropisomer, axis not shown; (P)) [Example 37, (P)-1-(5-cyano-2-methoxy-4-((1S,2S)-2-(trifluoromethyl)cyclopropyl)phenyl)-N-(isoxazol-3-yl)-2-oxo-1,2-dihydroquinoline-6-sulfonamide]",7 nM
2,"COc1cc([C@@H]2C[C@H]2C(F)(F)F)c(F)cc1-n1c(=O)cc(F)c2cc(S(=O)(=O)Nc3ccon3)ccc21 (atropisomer, axis not shown; (P)) [Example 44, (P)-4-fluoro-1-(5-fluoro-2-methoxy-4-((1R,2R)-2-(trifluoromethyl)cyclopropyl)phenyl)-N-(isoxazol-3-yl)-2-oxo-1,2-dihydroquinoline-6-sulfonamide]",5 nM
3,"COc1cc([C@@H]2C[C@H]2C(F)(F)F)ccc1-n1c(=O)ccc2cc(S(=O)(=O)Nc3ccon3)c(F)cc21 (atropisomer, axis not shown; (P)) [Example 47, (P)-7-fluoro-N-(isoxazol-3-yl)-1-(2-methoxy-4-((1R,2R)-2-(trifluoromethyl)cyclopropyl)phenyl)-2-oxo-1,2-dihydroquinoline-6-sulfonamide]",12 nM
4,"COc1cc([C@@H]2C[C@H]2C(F)(F)F)c(F)cc1-n1c(=O)ccc2cc(S(=O)(=O)Nc3ccon3)ccc21 (racemic) [Example 3, trans-1-(5-fluoro-2-methoxy-4-(2-(trifluoromethyl)cyclopropyl)phenyl)-N-(isoxazol-3-yl)-2-oxo-1,2-dihydroquinoline-6-sulfonamide]",23 nM
5,"COc1cc([C@H]2C[C@@H]2C(F)(F)F)c(Cl)cc1-n1c(=O)ccc2cc(S(=O)(=O)Nc3cccnn3)ccc21 (single isomer, unassigned) [Example 15]",14 nM

# More lines, in order of falling IC50, values ahead:
row,IC50,SMILES
1,11 nM,"COc1cc([C@@H]2C[C@H]2C(F)(F)F)c(F)cc1-n1c(=O)ccc2cc(S(=O)(=O)Nc3ncco3)ccc21 (atropisomer, axis not shown; (P)) [Example 35, (P)-1-(5-fluoro-2-methoxy-4-((1R,2R)-2-(trifluoromethyl)cyclopropyl)phenyl)-N-(oxazol-2-yl)-2-oxo-1,2-dihydroquinoline-6-sulfonamide]"
2,11 nM,"COc1cc([C@H]2C[C@@H]2C(F)(F)F)ccc1-n1c(=O)ccc2cc(S(=O)(=O)Nc3ccon3)c(F)cc21 (atropisomer, axis not shown; (P)) [Example 48, (P)-7-fluoro-N-(isoxazol-3-yl)-1-(2-methoxy-4-((1S,2S)-2-(trifluoromethyl)cyclopropyl)phenyl)-2-oxo-1,2-dihydroquinoline-6-sulfonamide]"
3,9 nM,"COc1cc([C@H]2C[C@@H]2C2CC2)c(F)cc1-n1c(=O)ccc2cc(S(=O)(=O)Nc3ccon3)ccc21 (atropisomer, axis not shown; (P)) [Example 31, (P)-1-(4-((1R,2S)-[1,1′-bi(cyclopropan)]-2-yl)-5-fluoro-2-methoxyphenyl)-N-(isoxazol-3-yl)-2-oxo-1,2-dihydroquinoline-6-sulfonamide]"
4,6 nM,"COc1cc([C@H]2C[C@@H]2C(F)(F)F)c(F)cc1-n1c(=O)ccc2cc(S(=O)(=O)Nc3ncco3)ccc21 (atropisomer, axis not shown; (P)) [Example 36, (P)-1-(5-fluoro-2-methoxy-4-((1S,2S)-2-(trifluoromethyl)cyclopropyl)phenyl)-N-(oxazol-2-yl)-2-oxo-1,2-dihydroquinoline-6-sulfonamide]"
5,5 nM,"COc1cc([C@@H]2C[C@H]2C(F)(F)F)c(F)cc1-n1c(=O)ccc2cc(S(=O)(=O)Nc3ncns3)ccc21 (atropisomer, axis not shown; (P)) [Example 34, (P)-1-(5-fluoro-2-methoxy-4-((1R,2R)-2-(trifluoromethyl)cyclopropyl)phenyl)-2-oxo-N-(1,2,4-thiadiazol-5-yl)-1,2-dihydroquinoline-6-sulfonamide]"
